Here are results for five molecules from patent US7786142B2, “Heterocyclic compounds as pSTAT3/IL-6 inhibitors” (Orchid Research Laboratories, Ltd., priority 2005, dated 2010).

Entries after “also recorded” stand apart in the source; their conditions may differ. A value given as a limit tells only on which side of the number the result lay.

The subject of data set [1] is Jak2/Stat3 signaling. The note with it: literature (Burdelya et al., 2002; Meydan et al., 1996; Constantin et al., 1998); cited from earlier work.
Data set [2] has as its system pSTAT3. Kind of data set: pSTAT3 inhibition (Western blot in DU 145 / SKOV-3 cells; ELISA in HepG2 cells). The class given is cell-based. The settings on record: in words; FIGS. 1 and 2. How it is done: Western blot analysis was performed as described by Kammer W et. al (J Biol Chem 271, 23634-23637, and J Biol Chem 273, 31222-31229). Briefly, 60 μg of whole cell extract was solubilized in Laemmeli buffer (50 mM Tris/HCl, pH 6.8, 2% SDS, 10% glycerol, 1 mM DTT, 1× Protease inhibitor cocktail, SET-3 (Calbiochem), 1 mM Sodium Ortho-vanadate) boiled for 5-10 minutes, and separated on a 10 or 12% acrylamide SDS gel. After protein transfer, the nitrocellulose membranes were blocked in blocking buffer for 2 hour (1×TBS, 0.1% Tween-20, 5% BSA). Membranes were incubated for 20 hours in blocking buffer containing, STAT3 P-Tyr705 (Santa Cruz Biotech), STAT3 (H-190, Santa Cruz Biotech) and Actin (C-2, Santa Cruz Biotech) antibody at 1:300 dilution. Detection was performed with HRP conjugated antimouse/antirabbit IgG (Santa Cruz Biotech) at a dilution of 1:3,000 for 1 hour. Visualization was performed using an Enhanced Chemiluminescence detection kit (Amersham). See Appended Diagrams: FIGS. 1 and 2. […]
Capture Antibody was diluted to a working concentration of 2.0 μg/mL in PBS. […] The plates were made ready after 2-3 washes with wash buffer. […] The reaction was stopped by adding 50 μl of stop solution to each well and the OD was determined using a microplate reader at 450 nm.
(In general: A western blot detects proteins with antibodies after separation by electrophoresis.)

Data set [3] deals with NCI H460 Xenograft. The data set can be described thus: In-vivo anti-cancer activity, NCI H460 xenograft model. Also noted: species or system SCID mice. The note with it: for in-vivo anti-cancer activity: NCI H460 Xenograft model, in words. How it is done: Experiments were carried out using 6-8 week old female athymic SCID (Severe Combined Immune Deficient) mice. The mice were kept in laminar flow rooms (housed in Individually Ventilated Cages) at constant temperature and humidity. They had free access to food and water. Tumors were obtained form ATCC and maintained by s.c. passages of tumor fragments (about 2×2×2 mm) in healthy mice according to standard reported procedures. Each experimental group included six/eight mice bearing bilateral tumors. Tumors were implanted on day 0, and tumor growth was followed by biweekly measurements of tumor diameters with a Vernier caliper. Tumor Volume (TV) was calculated according to the following formula: TV (mm^3)=d^2 XD/2, where d and D are the shortest diameter and the longest diameter of the tumor, respectively. The drug treatment started when tumors were just measurable (Mean TV=150-200 mm^3).
(§1) All test compound/standard drugs were delivered by gavage in a volume of 10 ml/kg. Drugs were administered every day for single time to a period of 21 days. Control mice were treated with the drug solvent/vehicle. Tumor size is measured every alternate days and body weight is recorded daily.
(§2) • a) Tumor Volume Inhibition (TVI): A TVI value higher than 80% is indicative of active compounds. • b) T/C % is also another indicator for the activity. A reproducible 20% T/C is considered as therapeutically active. • c) Log Cell Kill (LCK): A LCK value greater than 1 is indicative of active compounds. • d) Relative Tumor Volume (RTV), Tumor Delay and % Tumor volume change are also considered as valuable additional parameters for assessment. • e) Toxic effects of drug treatment were assessed by Body Weight Loss % • f) Lethal toxicity was defined as any death in treated groups occurring before any control death. Mice were inspected daily for mortality and toxic clinical signs.

The subject of data set [4] is NCIH460, HCT116, MDAMB-231/U 251. Kind of data set: Anti-cancer screen, mean GI50 over the cell lines. Format: cell-based. The procedure:
(§3) Experimental drugs are screened for anti-cancer activity in three cell lines for their GI50, TGI and LC50 values (using five concentrations for each compound). The cell lines are maintained in DMEM containing 10% fetal bovine serum. 96 well micro titer plates are inoculated with cells in 100 μL for 24 hours at 37° C., 5% CO2, 95% air and 100% relative humidity. 5000 HCT116 cells/well, 5000 NCIH460 cells/well and 5000 U251 cells/well are plated. A separate plate with these cell lines is also inoculated to determine cell viability before the addition of the compounds (T0), (See Table I).
(§4) Following 24-hours incubation, experimental drugs are added to the 96 well plates. Each plate contains one of the above cell lines and the following in triplicate: five different concentrations (0.01, 0.1, 1, 10 and 100 μM) of four different compounds, appropriate dilutions of a cytotoxic standard and control (untreated) wells. Compounds are dissolved in DMSO to make 20 mM stock solutions on the day of drug addition and frozen at −20° C. Serial dilutions of these 20 mM stock solutions are made in complete growth medium such that 100 μL of these drug solutions in medium, of final concentrations equaling 0.01, 0.1, 1, 10 and 100 μM can be added to the cells in triplicate. Standard drugs whose anti-cancer activity has been well documented and which are regularly used are Doxorubicin and SAHA, (See Table I).
(§5) For T0 measurement, 24 hours after seeding the cells, 10 μL of 3-(4,5-Dimethyl-2-thiazolyl)-2,5-diphenyl-2H-tetrazolium (MTT) solution per well is added and incubation carried out for 3 hours at 37° C., 5% CO2, 95% air and 100% relative humidity, protected from light. Cells incubated with compounds for 48 hours are treated similarly except with the addition of 20 μL MTT solution per well and a subsequent incubation under the same conditions. After 3 hours of MTT incubation, well contents are aspirated carefully followed by addition of 150 μL DMSO per well. Plates are agitated to ensure solution of the formazan crystals in DMSO and absorbance read at 570 nm, (See Table I).
(§6) Percent growth is calculated for each compound's concentration relative to the control and zero measurement wells (T0; viability right before compound addition). If a test well's O.D. value is greater than the T0 measurement for that cell line % Growth=(test−zero)/(control−zero)×100

The test system of data set [5] is HCT116 cells. The data set can be described thus: Anti-cancer screen (MTT), HCT116 cells. Format: cell-based. The note with it: Homo sapiens, HCT-116, HCT116, 48 hours, concentrations tested 0.01-100 μM. The procedure:
as §3, §4, §5, §6

The test system of data set [6] is MDAMB-231/U 251. The data set can be described thus: Anti-cancer screen (MTT), MDAMB-231/U 251 cells. Format: cell-based. The note with it: MDAMB-231/U 251, 48 hours, concentrations tested 0.01-100 μM; for CC50: read-out: LC50 (the source's name). The procedure: as §3, §4, §5, §6
The subject of data set [7] is IL-6. Kind of data set: IL-6 in culture supernatants of NCIH 460 cells (ELISA). Format: cell-based, Human. The note with it: NCIH 460, 5 hours; for IC50: read-out: IL-6 Inhibition IC50. The procedure: Human Lung Cancer cell line (NCIH 460) is used for IL-6 measurement. 5000 cells/well were seeded in a 96 well plate and incubated in CO2 incubator at 37° C. for 24 hours. After 24 hours of incubation the medium from all wells were completed removed and added 100 μl of fresh DMEM containing 10% FCS. 100 μl of different concentrations of the drug were added and incubated for 5 hours in CO2 incubator at 37° C. After 5 hours of incubation the supernatants were collected and stored at −80° C. The concentration of IL-6 in the supernatant was measured using ELISA kit and the IC50 value of the compound was determined from the dose response curve, (See Table II).
(In general: An ELISA detects its analyte on a solid surface through an enzyme-linked reagent.)

Data set [8] has as its system NCIH460 cells. The data set can be described thus: Anti-cancer screen (MTT), NCIH460 cells. Format: cell-based. The settings on record: Homo sapiens, NCI-H460, NCIH460, 48 hours, concentrations tested 0.01-100 μM; for CC50: read-out: LC50 (the source's name). The procedure: as §3, §4, §5, §6
The conditions of data set [9]: mouse, in vivo. The procedure: as §1, §2

In the case of `N#C/C(=C/c1ccc(O)c(O)c1)C(=O)NCc1ccccc1` [AG490], the “concentration needed to show Jak/Stat3 signaling inhibition and anti-tumor activity” value in [1] was 50 to 100 µM.

By GI50 is commonly meant the concentration that inhibits growth by half. A high value points to lower sensitivity of the cells. What is called inhibition is the share of the control response that was lost under treatment. A low value points to a weak effect. One may read the IC50 as the midpoint of a concentration-inhibition curve. `COc1ccc(CNCC(O)COc2cccc3[nH]c4ccccc4c23)c(OC)c1` (racemic) [Example 1, 1-(9H-carbazol-4-yloxy)-3-[(2,4-dimethoxybenzyl)amino]propan-2-ol]: the pSTAT3 inhibition entry in [2] was “work through pSTAT3 inhibition; also recorded: mechanism of action was through pSTAT3 inhibition”. In addition, the in-vivo anti-cancer activity entry in data set [3] is listed as “good in-vivo anti-cancer activity”. Moreover, the “inhibition against NCI H460 Xenograft model” value in data set [3] (SCID mice, gavage, every day for 21 days) came to 52%. Besides, the GI50 in [4] was 4.8 µM. Moreover, in [5], the GI50 stood at 8.5 µM, the IC (TGI) was 39 µM and the LC50 (concentration for 50% net cell kill relative to T0) stood at 79 µM. Further, in [6], the GI50 worked out at 5 µM, the IC (TGI) came to 9.8 µM and the CC50 amounted to 60 µM. The molecule further displayed an inhibition at 0.1 µM in data set [7] (Homo sapiens, NCI-H460, 0.1 μM) of 45.7%. Moreover, in data set [7] (Homo sapiens, NCI-H460), 1 µM produced 55.3% inhibition and the IC50 came to 5 µM. In [8], the GI50 was 0.78 µM, the IC (TGI) was determined as 18 µM and the CC50 turned out to be 62 µM.

For the molecule `O=C(c1ccc([N+](=O)[O-])o1)N1CCN(CC(O)COc2cccc3[nH]c4ccccc4c23)CC1` (stereo not drawn) [Example 35, 1-(9H-carbazol-4-yloxy)-3-{4-(5-nitro-2-furoyl)piperazin-1-yl}propan-2-ol], the GI50 in data set [4] turned out to be 3.27 µM. In addition, in data set [5], the GI50 was found to be 6 µM, the IC (TGI) came out at 42 µM and the LC50 (concentration for 50% net cell kill relative to T0) worked out at 85 µM. Moreover, in data set [6], it took 3 µM to inhibit growth by half (GI50), the IC (TGI) was greater than 100 µM and the CC50 is greater than 100 µM. In data set [7] (Homo sapiens, NCI-H460), this molecule gave an inhibition at 1 µM of 45% and an inhibition at 10 µM of 80.4%. Also, in [8], growth was halved (GI50) at 0.8 µM, the IC (TGI) stood at 7.5 µM and the CC50 amounted to 60 µM.

Take `COc1ccc(CNC[C@@H](O)COc2cccc3[nH]c4ccccc4c23)c(OC)c1` [Example 24, (2R)-1-(9H-carbazol-4-yloxy)-3-[(2,4-dimethoxy-benzyl)amino]propan-2-ol]: the in-vivo anti-cancer activity entry in [3] is listed as “good anti-cancer activity”. Also, the body weight loss result in data set [9] is recorded as “no body weight loss was observed”. Moreover, the GI50 in data set [4] came to 9 µM; in data set [5], 8.3 µM; in data set [6] it was 18 µM; in data set [8], 0.76 µM. In addition, the figures for the IC (TGI) in [5], in data set [6] and in [8] were 53 µM, 51 µM and 53 µM, respectively. Besides, the LC50 (concentration for 50% net cell kill relative to T0) in data set [5] came out at 80 µM. Moreover, the CC50 was 79 µM in data set [6] and 67 µM in [8]. Further, in data set [7], the “IL-6 Inhibition IC50 (μM)” value was “No activity”.

For `OC(CNCc1ccccc1)COc1cccc2[nH]c3ccccc3c12` (stereo not drawn) [Example 23, 1-(9H-carbazol-4-yloxy)-3-benzylaminopropan-2-ol], growth in [4] was halved (GI50) at 6.6 µM. Besides, in data set [5], the GI50 was found to be 18 µM, the IC (TGI) worked out at 47 µM and the LC50 (concentration for 50% net cell kill relative to T0) stood at 77 µM. Also, in data set [6], the 50% growth inhibitory concentration (GI50) was found to be 1 µM, the IC (TGI) was 10 µM and the CC50 was determined as 65 µM. Also, in data set [7] (Homo sapiens, NCI-H460), 10 µM produced 29.3% inhibition and the IC50 amounted to 24 µM. Further, in data set [8], it took 0.79 µM to inhibit growth by half (GI50), the IC (TGI) turned out to be 35 µM and the CC50 is 70 µM.
